{
  "source": "ChEMBL document CHEMBL4433249",
  "about": "“New sensible method to quantize the intestinal absorption of receptor ligands” (Bioorg Med Chem, 2019)",
  "key": {"[1]": {"experiment": "Drug retention in Wistar rat everted gut sac at 10000 nM", "assay_type": "ADME, tissue-based, Intestine", "details": "10 µM"}, "[2]": {"experiment": "Apparent permeability of the compound across Wistar rat everted gut sac at 1000 nM", "assay_type": "ADME, tissue-based, Intestine"}, "[3]": {"experiment": "Apparent permeability of the compound across Wistar rat everted gut sac at 300 nM", "assay_type": "ADME, tissue-based, Intestine"}, "[4]": {"experiment": "(§1) Drug absorption in Wistar rat small intestinal mucosal fluid assessed as displacement of [3H]HEMADO from recombinant human A3 receptor expressed in CHO cells at 1000 nM exposed to mucosal fluid derived from 60 mins compound treated sac followed by further incubation for 3 hrs by scintillation counting based radioligand binding assay", "assay_type": "cell-based, Mucosa of small intestine", "details": "1 µM"}, "[5]": {"experiment": "as §1, with “10000” for “1000”", "assay_type": "cell-based, Mucosa of small intestine", "details": "10 µM"}, "[6]": {"experiment": "as §1, with “3000” for “1000”", "assay_type": "cell-based, Mucosa of small intestine", "details": "3 µM"}, "[7]": {"experiment": "as §1, with “serosal” for “mucosal”, “3000” for “1000”", "assay_type": "cell-based", "details": "3 µM"}, "[8]": {"experiment": "Drug absorption in Wistar rat everted gut sac at 10000 nM", "assay_type": "ADME, tissue-based, Intestine", "details": "10 µM"}, "[9]": {"experiment": "Drug absorption in Wistar rat everted gut sac at 3000 nM", "assay_type": "ADME, tissue-based, Intestine", "details": "3 µM"}, "[10]": {"experiment": "Drug absorption in Wistar rat everted gut sac at 1000 nM", "assay_type": "ADME, tissue-based, Intestine", "details": "1 µM"}, "[11]": {"experiment": "as §1, with “serosal” for “mucosal”, “300” for “1000”", "assay_type": "cell-based", "details": "0.3 µM"}, "[12]": {"experiment": "as §1, with “300” for “1000”", "assay_type": "cell-based, Mucosa of small intestine", "details": "0.3 µM"}, "[13]": {"experiment": "Drug retention in Wistar rat everted gut sac at 300 nM", "assay_type": "ADME, tissue-based, Intestine", "details": "0.3 µM"}, "[14]": {"experiment": "Apparent permeability of the compound across Wistar rat everted gut sac at 10000 nM", "assay_type": "ADME, tissue-based, Intestine"}, "[15]": {"experiment": "Drug retention in Wistar rat everted gut sac at 1000 nM", "assay_type": "ADME, tissue-based, Intestine", "details": "1 µM"}, "[16]": {"experiment": "Drug retention in Wistar rat everted gut sac at 3000 nM", "assay_type": "ADME, tissue-based, Intestine", "details": "3 µM"}, "[17]": {"experiment": "Drug absorption in Wistar rat small intestinal serosal fluid at 3000 nM incubated for 60 mins by HPLC-DAD analysis", "assay_type": "ADME", "details": "1 h, 3 µM"}, "[18]": {"experiment": "as §1, with “serosal” for “mucosal”, “10000” for “1000”", "assay_type": "cell-based", "details": "10 µM"}, "[19]": {"experiment": "Apparent permeability of the compound across Wistar rat everted gut sac at 3000 nM", "assay_type": "ADME, tissue-based, Intestine"}, "[20]": {"experiment": "Drug absorption in Wistar rat small intestinal serosal fluid at 10000 nM incubated for 60 mins by HPLC-DAD analysis", "assay_type": "ADME", "details": "1 h, 10 µM"}, "[21]": {"experiment": "as §1, with “serosal” for “mucosal”", "assay_type": "cell-based", "details": "1 µM"}, "[22]": {"experiment": "Drug absorption in Wistar rat everted gut sac at 300 nM", "assay_type": "ADME, tissue-based, Intestine", "details": "0.3 µM"}},
  "data": [
    {"smiles": "CNC(=O)[C@H]1O[C@@H](n2cnc3c(NC)nc(C#Cc4ccccc4)nc32)[C@H](O)[C@@H]1O", "values": [
      {"measurement": "Drug uptake", "setting": "[1]", "result": 67, "unit": "%"},
      {"measurement": "Papp at 1 µM", "setting": "[2]", "result": 8.4, "unit": "×10⁻⁶ cm/s"},
      {"measurement": "Papp at 0.3 µM", "setting": "[3]", "result": 8.5, "unit": "×10⁻⁶ cm/s"},
      {"measurement": "Drug absorption", "setting": "[4]", "result": 224, "unit": "nM"},
      {"measurement": "Drug absorption", "setting": "[5]", "result": 2088, "unit": "nM"},
      {"measurement": "Drug absorption", "setting": "[6]", "result": 857, "unit": "nM"},
      {"measurement": "Drug absorption", "setting": "[7]", "result": 373, "unit": "nM"},
      {"measurement": "Drug absorption", "setting": "[8]", "result": 11.8, "unit": "%"},
      {"measurement": "Drug absorption", "setting": "[9]", "result": 12.4, "unit": "%"},
      {"measurement": "Drug absorption", "setting": "[10]", "result": 11.9, "unit": "%"},
      {"measurement": "Drug absorption", "setting": "[11]", "result": 36, "unit": "nM"},
      {"measurement": "Drug absorption", "setting": "[12]", "result": 133, "unit": "nM"},
      {"measurement": "Drug uptake", "setting": "[13]", "result": 44, "unit": "%"},
      {"measurement": "Papp at 10 µM", "setting": "[14]", "result": 8.4, "unit": "×10⁻⁶ cm/s"},
      {"measurement": "Drug uptake", "setting": "[15]", "result": 65, "unit": "%"},
      {"measurement": "Drug uptake", "setting": "[16]", "result": 59, "unit": "%"},
      {"measurement": "Drug absorption", "setting": "[17]", "result": 550, "unit": "nM"},
      {"measurement": "Drug absorption", "setting": "[18]", "result": 1180, "unit": "nM"},
      {"measurement": "Papp at 3 µM", "setting": "[19]", "result": 8.5, "unit": "×10⁻⁶ cm/s"},
      {"measurement": "Drug absorption", "setting": "[20]", "result": 2000, "unit": "nM"},
      {"measurement": "Drug absorption", "setting": "[21]", "result": 119, "unit": "nM"},
      {"measurement": "Drug absorption", "setting": "[22]", "result": 12, "unit": "%"}
    ]}
  ]
}
